The source of these data is PMC7539972, “Role of Two Exceptional trans Adenylation Domains and MbtH‐like Proteins in the Biosynthesis of the Nonribosomal Peptide WS9324A from Streptomyces calvus ATCC 13382” (Chembiochem, 2020).

The structures appear in SMILES notation.

Assay in all cases: […]PPi release adenylation assay
Common to all, as to assay type: biochemical

Test [1] addresses T1, Cal23Asn/Cal4 complex (Streptomyces calvus, UniProt A0A0N9M336).
T1 construct: gene cal23; complete ORF, A-PCP didomain, N-terminal His6 tag; copurified with untagged MbtH-like protein Cal4; E. coli BL21(DE3) ΔybdZ; with MbtH-like protein
The conditions noted are these: co-substrate asparagine 0.2 mM; 0.15 mM ATP, 1 mM MgCl2, 25 °C, 3 h; labelled compound.

Test [2] concerns the target T2, Cal22Thr (Streptomyces calvus, UniProt A0A0N9LS39).
T2 construct: gene cal22; complete ORF, A-PCP didomain, N-terminal His6 tag; E. coli BL21(DE3) ΔybdZ, coexpressed with untagged Cal4 (Cal4 not copurified)
The conditions noted are these: co-substrate threonine 0.2 mM; 0.15 mM ATP, 1 mM MgCl2, 25 °C, 3 h; labelled compound.

For test [3], the target named is T1, Cal23Asn/Cal4 complex. The conditions noted are these: 0.2 mM amino acid, 0.15 mM ATP, 1 mM MgCl2, 25 °C, 3 h, 30 μM enzyme; most active of 20 proteinogenic amino acids.
The target in test [4] is T2, Cal22Thr. The conditions noted are these: 0.2 mM amino acid, 0.15 mM ATP, 1 mM MgCl2, 25 °C, 3 h, 30 μM enzyme; most active of 20 proteinogenic amino acids.

T2 sequence (A0A0N9LS39 entry or part of it): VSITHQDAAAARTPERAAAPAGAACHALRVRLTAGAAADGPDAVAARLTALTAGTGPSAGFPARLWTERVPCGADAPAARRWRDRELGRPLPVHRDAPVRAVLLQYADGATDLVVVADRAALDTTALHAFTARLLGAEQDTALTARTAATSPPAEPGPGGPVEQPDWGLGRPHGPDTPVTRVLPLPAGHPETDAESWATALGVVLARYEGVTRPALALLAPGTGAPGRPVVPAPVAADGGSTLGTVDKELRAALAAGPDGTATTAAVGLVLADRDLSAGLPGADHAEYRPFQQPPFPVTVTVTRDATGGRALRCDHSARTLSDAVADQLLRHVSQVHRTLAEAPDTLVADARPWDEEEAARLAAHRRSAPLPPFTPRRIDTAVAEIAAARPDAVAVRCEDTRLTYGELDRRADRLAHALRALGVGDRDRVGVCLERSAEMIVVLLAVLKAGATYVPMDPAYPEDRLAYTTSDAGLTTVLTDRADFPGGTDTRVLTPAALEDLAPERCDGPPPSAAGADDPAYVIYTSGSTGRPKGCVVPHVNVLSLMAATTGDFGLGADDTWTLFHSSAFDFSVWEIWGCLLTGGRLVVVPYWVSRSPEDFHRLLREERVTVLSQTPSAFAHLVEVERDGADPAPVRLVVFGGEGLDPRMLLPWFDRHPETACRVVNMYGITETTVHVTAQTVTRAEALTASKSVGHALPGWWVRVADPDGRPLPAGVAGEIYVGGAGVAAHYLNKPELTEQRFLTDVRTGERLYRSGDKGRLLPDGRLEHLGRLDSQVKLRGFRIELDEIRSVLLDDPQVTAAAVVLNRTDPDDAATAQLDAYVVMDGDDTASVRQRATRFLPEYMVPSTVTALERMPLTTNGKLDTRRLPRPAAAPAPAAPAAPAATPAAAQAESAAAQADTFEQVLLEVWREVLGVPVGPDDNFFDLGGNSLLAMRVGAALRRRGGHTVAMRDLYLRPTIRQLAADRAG
T1 sequence (A0A0N9M336 entry or part of it): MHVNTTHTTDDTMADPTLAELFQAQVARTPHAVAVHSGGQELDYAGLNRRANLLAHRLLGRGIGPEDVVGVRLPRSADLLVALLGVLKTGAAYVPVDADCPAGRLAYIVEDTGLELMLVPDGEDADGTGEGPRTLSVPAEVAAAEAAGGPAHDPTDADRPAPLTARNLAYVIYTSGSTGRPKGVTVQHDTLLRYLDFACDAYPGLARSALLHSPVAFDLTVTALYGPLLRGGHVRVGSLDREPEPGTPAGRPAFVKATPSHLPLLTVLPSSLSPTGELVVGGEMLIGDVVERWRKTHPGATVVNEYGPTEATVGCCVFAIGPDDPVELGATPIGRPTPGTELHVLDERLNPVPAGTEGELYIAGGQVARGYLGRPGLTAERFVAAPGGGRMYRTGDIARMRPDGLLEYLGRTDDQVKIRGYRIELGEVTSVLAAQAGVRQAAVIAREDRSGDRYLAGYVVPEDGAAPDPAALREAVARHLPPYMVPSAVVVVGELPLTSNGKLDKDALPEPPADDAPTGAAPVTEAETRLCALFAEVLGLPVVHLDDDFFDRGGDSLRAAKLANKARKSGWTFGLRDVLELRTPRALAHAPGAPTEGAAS
T1 sequence (A0A0N9M601 entry or part of it, further chain): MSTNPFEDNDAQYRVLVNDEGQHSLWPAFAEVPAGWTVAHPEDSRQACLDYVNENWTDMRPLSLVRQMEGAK

In the case of `Nc1ncnc2c1ncn2[C@@H]1O[C@H](COP(=O)(O)OP(=O)(O)OP(=O)(O)O)[C@@H](O)[C@H]1O` [ATP], the “[33P]PPi release adenylation assay” value at Cal23Asn/Cal4 complex [1] and on Cal22Thr [2] was “the reaction of ATP with an amino acid to form an amino acyl adenylate was measured” in each case. As for `NC(=O)C[C@H](N)C(=O)O` [asparagine], the relative adenylation activity result at Cal23Asn/Cal4 complex [3] is reported as “Cal23Asn/Cal4 complex was most active towards asparagine, the predicted substrate of the A‐domain”. For `C[C@@H](O)[C@H](N)C(=O)O` [threonine], the relative adenylation activity result at Cal22Thr [4] is “Cal22Thr was observed to be most specific towards its predicted substrate threonine”.
